From patent US20050034189A1, “Chitin oligosaccharide elicitor- and gibberellin-responsive genes in plants, and uses thereof” (National Institute of Agrobiological Sciences, priority 2001, published 2005)
Where two headings read alike, the source gives them in different places.

Assays:
nine plant bioassays = settings: cited from earlier work
[1] = tested on: CIGR1 gene and CIGR2 gene; experiment: Gibberellin responsiveness of CIGR1 and CIGR2 genes in suspension-cultured rice cells, Northern blot hybridization; assay type: cell-based, rice (Oryza sativa cv. Nipponbare); settings: for induction of CIGR1 and CIGR2 gene expression by gibberellin species: ten-minute treatment of cultured rice cells
Experimental: (§1) (1) Cultured rice cells: The cultured cells of rice were induced from germinating rice seeds (Oryza sativa cv. Nipponbare) on a N6 agar plate containing 1 ppm 2,4-D (auxin; 2,4-dichlorophenoxyacetic acid). The cells were successively cultured in liquid N6 medium as follows. Once a week, cells of about 1 ml in volume were transferred to 150 ml N6 medium. Every two weeks, sizes of the clusters of cells were reduced by passing through a 20-mesh metallic mesh. Unfiltered cells that were cultured while shaking for four to six days after transferring to a 30-ml medium, were used for Northern blotting's RNA extraction.
(§2) (2) RNA extraction: The extraction of total RNA from cultured cells and green leaves of rice was carried out following the phenol-SDS method. A Polytron homogenizer was used to homogenize tissue in the presence of phenol (about 90% saturated with water) of about tenfold or more volume to the tissue volume, and the same volume of extraction buffer solution (50 mM Tris-HCl pH 9.0, 1% SDS, 50 mM NaCl). The aqueous phase obtained by centrifugation was repeatedly extracted with phenol. The total nucleic acid was precipitated by adding 0.6 volume of isopropanol to the extract and then stirring the mixture. After dissolving the precipitate in water, 0.25 volume of 10 M LiCl was added, and the mixture was cooled on ice. High molecular weight RNA was collected by centrifugation, washed with 70% ethanol, and then dissolved in a small volume of water to be used as an RNA sample.
(3) A method for gibberellin treatment of cultured cells and green leaves: The cultured cells were pre-washed with 2,4-D-free N6 medium several times, and then suspended in the same medium and shaken for two hours at 25° C. Gibberellin (GA3 dissolved in ethanol) was added to make the respective final concentrations and the cells were cultured while shaking for a predetermined time and used for RNA extraction. Nipponbare plants, grown three weeks after seeding, were sprayed with gibberellin. The third and fourth leaves were collected at certain intervals and total RNA was extracted. Elicitor treatment was carried out by directly adding aqueous elicitor solutions to cultured cells of rice.
(4) Hybridization: RNA for the Northern hybridization was denatured by the glyoxal method. 2.7 μl of glyoxal (final concentration, 1 M), 1.6 μl of sodium phosphate (pH 7.0, final concentration, 10 mM), and 8 μl of dimethylsulfoxide (final concentration, 50%) were added to 10 μg of total RNA (3.7 μl). The mixture was kept at 50° C. for one hour and then subjected to electrophoresis in 1.4% agarose (10 mM sodium phosphate, pH 7.0). After electrophoresis, RNA was blotted onto a nylon membrane (Biodyne A) and RNA was fixed onto the membrane by treatment at 80° C. for two hours. Hybridization was carried out in a mixture of 50% formamide, 0.1% SDS, 0.1 mg/ml salmon sperm DNA, 5×SSPE (0.9 M NaCl, 50 mM sodium phosphate, 5 mM EDTA, pH 7.4), and 5× Denhardt's solution (0.1% bovine serum albumin, 0.1% Ficoll, 0.1% polyvinylpyrrolidone) at 42° C. for one day. The membrane was then washed with 0.1×SSC (15 mM NaCl, 1.5 mM sodium citrate) three times for five minutes each at room temperature and twice for 30 minutes each at 65° C. and then exposed on X-ray film.
Therefore, the present inventors examined the gibberellin responsiveness of CIGR1 and CIGR2 genes. Suspension-cultured cells were treated with GA3, which is one of the active-type gibberellins, and changes in the expression of these two genes were analyzed over time. […] To maintain cell division activity, the medium used for culturing plant cells contained 2,4-D, which is one of auxins that are not easily metabolized by plants. It was thought that 2,4-D might suppress the action of gibberellin. Therefore, the cells were pre-washed with 2,4-D-free medium, and after two hours of pre-culture in the same medium, the cells were treated with GA3. […]

[2] = tested on: CIGR1 gene and CIGR2 gene; experiment: Effect of inhibitors on induction of CIGR1 and CIGR2 genes by GA3 in cultured rice cells; assay type: cell-based; settings: inhibitor added ten minutes before; okadaic acid 1 μM, lavendustin A 30 μM, K-252a 20 μM
Experimental: (§3) FIG. 11 depicts photographs representing the effects of protein kinase inhibitors on elicitor response and gibberellin response. The following compounds were added ten minutes before the treatment with chitin heptamer (GN7) or gibberellin (GA3). (A): the positive control of the elicitor response; (B): okadaic acid (1 μM); (C), lavendustin A (30 μM); (D), K-252a (20 μM).
(§4) In addition, the effects of various inhibitors on the inductions by gibberellin and elicitors of CIGR1 gene and CIGR2 gene in the cultured rice cells were examined. Referring to the results of Kuo et al., cells pretreated with okadaic acid were tested. […] From these observations, protein phosphatase was presumed to be involved in signal transduction from gibberellin to CIGR1 gene and CIGR2 gene in cultured rice cells. Following these experiments, the effects of protein kinase inhibitors were studied.

[3] = tested on: elicitor-responsive genes; settings: pretreatment with K-252a; suspension-cultured rice cells; cited from earlier work
α-amylase = settings: aleurone layer of wheat, cited from earlier work
[4] = tested on: CIGR1 gene and CIGR2 gene; experiment: Effect of inhibitors on induction of CIGR1 and CIGR2 genes by chitin heptamer in cultured rice cells; assay type: cell-based; settings: inhibitor added ten minutes before; okadaic acid 1 μM, lavendustin A 30 μM, K-252a 20 μM
Experimental: as §3, §4

CHRC = settings: cited from earlier work
[5] = tested on: CIGR1 gene and CIGR2 gene; experiment: Expression of CIGR1 and CIGR2 genes in green leaves of rice after GA3 spraying; assay type: in vivo, rice (Nipponbare); settings: GA3 50 μM sprayed; third and fourth leaves, three weeks after seeding
Experimental: FIG. 10 depicts photographs representing the expression of CIGR1 gene and CIGR2 gene in green leaves of rice after GA3 treatment. After spraying rice plants with GA3, the third and fourth leaves were sampled at certain intervals. Total RNA extracted from the third and fourth leaves was analyzed by the Northern blot hybridization method.
as §2, with “sample. […]” for “sample.”
Cultured plant cells are thought to be in an undifferentiated state in the presence of auxins. […] Thus, the responses of these two genes to gibberellin were analyzed in green leaves of rice. […]

rice = settings: reported; cited from earlier work
[6] = tested on: CIGR1 gene and CIGR2 gene; experiment: Elicitor responsiveness of CIGR1 and CIGR2 genes in cultured rice cells, Northern blot hybridization; assay type: cell-based, rice (Oryza sativa cv. Nipponbare)
Experimental: as §1, §2
(3) A method for gibberellin treatment of cultured cells and green leaves: The cultured cells were pre-washed with 2,4-D-free N6 medium several times, and then suspended in the same medium and shaken for two hours at 25° C. […]
Both CIGR1 gene and CIGR2 gene were identified as elicitor responsive genes using DNA microarray analysis. The elicitor responsiveness of these two genes was analyzed using Northern blot hybridization method. […]

[7] = tested on: PR1, PR10 and OsDRF1 genes; experiment: Induction of PR1, PR10 and OsDRF1 genes after DEX treatment of transformed rice, oligoarray and Northern; assay type: in vivo, rice (Nipponbare); settings: transformed line #7; DEX 30 μM spray
Experimental: FIG. 12 depicts photographs representing the occurrence of expression induction of PR1, PR10 and OsDRF1 genes on induction of CIGR2 gene expression by DEX using a DEX-inducing type promoter. Transformed rice plants #7 and #9 were spray-treated with DEX or ethanol (EtOH; 0.1% v/v). The amounts of mRNA for each gene were measured using northern blot hybridization after zero, 24, 48 and 72 hours.
Using Agrobacterium methods, the plasmid was introduced into rice (Nipponbare). The derived transformed rice was inbred, and second generation seeds were obtained. Each independent line was spray-treated with dexamethasone (DEX; 30 μM, ethanol solution). Over a time course, total RNAs were extracted by phenol methods from the above ground part of the plant. Northern hybridization was carried out using the cDNA of ^32P-labeled CIGR2 as a probe. […] This line was analyzed using a 60mer oligoarray (Agilent) constructed from a total-length rice cDNA library. As a result, induction of three genes (PR1(AK107926), PR10, and OsDRF1 (Defense Response Gene Family 1; AK100816)) was discovered 48-72 hours after dexamethasone treatment. PR1 and PR10 are known to be involved in disease resistance. […]

[8] = ten-minute GA3 treatment, 2,4-D-free medium

Row | Structure (SMILES) | physiological activity type of gibberellin (nine plant bioassays) | induction of CIGR1 and CIGR2 gene expression by gibberellin species [1] | inhibition of induction of both genes by GA3 [2] | inhibition of induction of both genes by chitin heptamer [4] | further results
1 | C=C1C[C@]23C[C@@]1(O)CC[C@H]2[C@@]12CC[C@H](O)[C@@](C)(C(=O)O1)[C@H]2[C@@H]3C(=O)O [GA1] | active type | induced the expression of both genes | – | – | –
2 | COC(=O)[C@@]1(O)C[C@H]2O[C@]1(C)n1c3ccccc3c3c4c(c5c6ccccc6n2c5c31)C(=O)NC4 [K-252-A] | – | – | almost completely | almost completely | inhibition of induction of expression of elicitor-responsive genes [3]: strongly inhibited; inhibition of gibberellin induction of α-amylase (α-amylase; listed as K252a): hardly inhibited
3 | C=C1C[C@]23C[C@@]1(O)CC[C@H]2[C@@]12C=C[C@H](O)[C@@](C)(C(=O)O1)[C@H]2[C@@H]3C(=O)O [GA3] | active type | induced the expression of both genes | – | – | GA3 concentration required for induction of CHRC by gibberellin (CHRC; chromoplasts of cucumber petals): at least 10^−7 M; GA3 concentration up to which CHRC expression level increased approximately linearly (CHRC; cucumber petals): up to 10^−4 M; expression after GA3 treatment ([1]; cells pre-washed and pre-cultured two hours in 2,4-D-free medium): Transient expression with a maximum at ten minutes after treatment; change in the amount of expression after GA3 treatment ([1]; medium containing 2,4-D, up to three hours after treatment, both genes): no significant change; GA3 concentration at which induction of expression of both genes began to appear [1, 8]: 10^−6 M; GA3 concentration at which induction reached near saturation [1, 8]: ~10^−4 M; expression of both genes in green leaves after GA3 spraying [5]: very rapid transient expression with a maximum at 30 minutes after spraying
4 | C=C1C[C@]23C[C@H]1CC[C@H]2[C@@]12CC[C@H](O)[C@@](C)(C(=O)O1)[C@H]2[C@@H]3C(=O)O [GA4] | active type | induced the expression of both genes | – | – | –
5 | CC(=O)N[C@H]1[C@H](O[C@@H]([C@H](O)[C@H](C=O)NC(C)=O)[C@H](O)CO)O[C@H](CO)[C@@H](O[C@@H]2O[C@H](CO)[C@@H](O[C@@H]3O[C@H](CO)[C@@H](O[C@@H]4O[C@H](CO)[C@@H](O[C@@H]5O[C@H](CO)[C@@H](O[C@@H]6O[C@H](CO)[C@@H](O)[C@H](O)[C@H]6NC(C)=O)[C@H](O)[C@H]5NC(C)=O)[C@H](O)[C@H]4NC(C)=O)[C@H](O)[C@H]3NC(C)=O)[C@H](O)[C@H]2NC(C)=O)[C@@H]1O [chitin heptamer, N-acetylchitoheptaose] | – | – | – | – | elicitor activity in rice depending on oligomer size (rice): strongest effects; response (induction of expression) of both genes to chitin oligomers (monomer to heptamer) and chitosan oligomers (tetramer, heptamer) [6]: strongest response; time for which expression continued to increase after chitin heptamer treatment ([6]; both genes): up to 90 minutes; mRNA amount of CIGR1 and CIGR2 genes after treatment with chitin heptamer ([6]; five minutes after treatment, both genes): Significant increases of mRNA amount
6 | C=C1C[C@]23C[C@@]1(O)CC[C@H]2[C@]1(C(=O)O)CCC[C@@](C)(C(=O)O)[C@H]1[C@@H]3C(=O)O [GA17] | inactive type | only active type gibberellins induced the expression | – | – | –
7 | C=C1[C@@H](O)[C@@H]2O[C@]3(CC[C@H](/C=C/[C@@H](C)[C@@H]4CC(C)=C[C@@]5(O[C@H](C[C@@](C)(O)C(=O)O)CC[C@H]5O)O4)O3)CC[C@H]2O[C@@H]1[C@@H](O)C[C@H](C)[C@H]1O[C@@]2(CCCCO2)CC[C@H]1C [okadaic acid] | – | – | inhibited almost completely | hardly inhibited | inhibition of gibberellin induction of α-amylase (α-amylase): specifically inhibited
8 | C=C1C[C@]23C[C@H]1CC[C@H]2[C@]1(C(=O)O)CC[C@H](O)[C@@](C)(C(=O)O)[C@H]1[C@@H]3C(=O)O [GA13] | inactive type | only active type gibberellins induced the expression | – | – | –
9 | O=C(O)c1cc(N(Cc2ccccc2O)Cc2cc(O)ccc2O)ccc1O [Lavendustin A] | – | – | almost completely | hardly inhibited | –
10 | C[C@@H]1C[C@H]2[C@@H]3CCC4=CC(=O)C=C[C@]4(C)[C@@]3(F)[C@@H](O)C[C@]2(C)[C@@]1(O)C(=O)CO [dexamethasone] | – | – | – | – | time after dexamethasone treatment at which induction of PR1, PR10 and OsDRF1 was discovered [7]: 48 to 72 h
